Key:
MCF7 cells = test: Cell viability assay ([…]-GLO, 6-day treatment); type: cell-based; settings: Homo sapiens, MCF7, 144 h; MCF-7 cells, 6 days, CTG; read-out: Inhibition of Cancerous Cells IC50 MCF-7
Protocol: A compound provided herein was evaluated for its anticancer activity in MCF7 and T47D cells. MCF7 and T47D cells were cultured at 37° C. in a humidified 5% C02 environment in MEM or RPMI, supplemented with 10% FBS with insulin, respectively. The cells were plated in 384-well microplates at a density of 1,000 cells per well in their respective maintenance media. The cells were treated with the compound by a 10-point dose response curve for 6 days, during which, the medium and compound were refreshed once. After the 6-day treatment, the cell viability was assessed using […]-GLO (CTG) reagent. Luminescence was measured with a microplate reader.

ERα = molecular target: T1, ERα (Homo sapiens, UniProt P03372); test: Protein degradation assay: ERα in MCF-7 cells via western blot; type: cell-based; settings: 6 h; for ERα Protein Degradation 1 nM: 1 nM compound; for ERα Protein Degradation 10 nM: 10 nM compound; for ERα Protein Degradation 100 nM: 100 nM compound
T1 construct: degrading an ERα in MCF-7 cells via a western blot; endogenous in cells; host or cells: MCF-7
T1 sequence (P03372 1-595): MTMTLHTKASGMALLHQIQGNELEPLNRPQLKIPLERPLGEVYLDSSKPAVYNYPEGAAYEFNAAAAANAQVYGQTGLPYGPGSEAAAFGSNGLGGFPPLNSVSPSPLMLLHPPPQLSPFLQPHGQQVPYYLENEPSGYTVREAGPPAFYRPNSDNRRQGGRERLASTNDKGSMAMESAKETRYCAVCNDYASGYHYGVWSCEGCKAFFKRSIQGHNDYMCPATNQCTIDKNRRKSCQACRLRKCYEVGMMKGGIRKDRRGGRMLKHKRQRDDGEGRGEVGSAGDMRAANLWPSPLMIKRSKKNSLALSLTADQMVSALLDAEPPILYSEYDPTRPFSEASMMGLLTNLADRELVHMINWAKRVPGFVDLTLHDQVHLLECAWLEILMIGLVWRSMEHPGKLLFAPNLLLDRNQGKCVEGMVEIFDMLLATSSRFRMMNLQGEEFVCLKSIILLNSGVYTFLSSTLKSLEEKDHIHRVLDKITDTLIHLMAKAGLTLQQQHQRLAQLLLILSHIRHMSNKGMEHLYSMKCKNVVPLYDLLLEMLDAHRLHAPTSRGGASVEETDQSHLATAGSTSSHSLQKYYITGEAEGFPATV
Protocol: A compound provided herein was assessed for its activity in degrading an ERα in MCF-7 cells via a western blot. The MCF7 cells were cultured at 37° C. in a humidified 5% C02 environment in MEM supplemented with 10% FBS with insulin. The cells were seeded in 12-well plates at a density of 300,000 cells per well in maintenance media. Cells were treated with the compound at predetermined concentrations (e.g., 1 nM, 10 nM, 100 nM, and 1 μM) for 6 h. The cells were then washed in PBS and the whole cells were lysed in a cell lysis buffer and incubated for 15 minutes on ice. Cell debris was removed by high-speed centrifugation and the cleared whole cell lysates were prepared for further analysis by a western blot. The whole cell protein extracts were separated on SDS-polyacrylamide gels, transferred to nitrocellulose membranes, and probed with primary antibodies, including anti-ERα antibody and GAPDH antibody for loading control. The membranes were subsequently washed and probed with secondary antibodies for chemiluminescence, followed by imaging on a BIORAD CHEMIDOC Imaging System. The results are summarized in Table 2, where “A” represents a percentage degradation value of no less than 50%; “B” represents a percentage degradation value of less than 50% and no less than 25%; “C” represents a percentage degradation value of less than 25% and no less than 10%; and “D” represents a percentage degradation value of less than 10%.

Row | Compound | IC50 (MCF7 cells) | ERα Protein Degradation 1 nM (ERα) | ERα Protein Degradation 10 nM (ERα) | ERα Protein Degradation 100 nM (ERα)
1 | Cn1nc(C2CCC(=O)NC2=O)c2ccc(OCC(=O)N3CCN(CC4CCN(c5ccc([C@@H]6c7ccc(O)cc7CC[C@@H]6c6ccccc6)cc5)CC4)CC3)cc21 (stereo partly drawn) [Compound B27, 3-(6-(2-(4-((1-(4-((1R,2S)-6-Hydroxy-2-phenyl-1,2,3,4-tetrahydronaphthalen-1-yl)phenyl)piperidin-4-yl)methyl)piperazin-1-yl)-2-oxoethoxy)-1-methyl-1H-indazol-3-yl)-piperidine-2,6-dione] | 0.99 nM | D (a percentage degradation value of less than 10%) | B (a percentage degradation value of less than 50% and no less than 25%) | D (a percentage degradation value of less than 10%)
2 | Cn1nc(C2CCC(=O)NC2=O)c2ccc(OCC(=O)N3CCN(CCCCOc4ccc(CC5(C)C(c6ccc(O)cc6)=Nc6ccc(O)cc65)cc4)CC3)cc21 (stereo not shown) [Compound D5, 3-(6-(2-(4-(4-(4-((5-Hydroxy-2-(4-hydroxyphenyl)-3-methyl-3H-indol-3-yl)-methyl)phenoxy)butyl)piperazin-1-yl)-2-oxoethoxy)-1-methyl-1H-indazol-3-yl)piperidine-2,6-dione] | 136 nM | C (a percentage degradation value of less than 25% and no less than 10%) | D (a percentage degradation value of less than 10%) | C (a percentage degradation value of less than 25% and no less than 10%)
3 | Cc1c(-c2ccc(O)cc2)n(Cc2ccc(OCCCCN3CCN(c4cc5c(s4)CN(C4CCC(=O)NC4=O)C5=O)CC3)cc2)c2ccc(O)cc12 (stereo not shown) [Compound E6, 3-(2-(4-(4-(4-((5-Hydroxy-2-(4-hydroxyphenyl)-3-methyl-1H-indol-1-yl)methyl)-phenoxy)butyl)piperazin-1-yl)-4-oxo-4,6-dihydro-5H-thieno[2,3-c]pyrrol-5-yl)piperidine-2,6-dione] | 0.22 nM | D (a percentage degradation value of less than 10%) | D (a percentage degradation value of less than 10%) | D (a percentage degradation value of less than 10%)
4 | Cc1c(-c2ccc(O)cc2)n(Cc2ccc(OCCCCN3CCN(C(=O)COc4ccc5c(C6CCC(=O)NC6=O)nn(C)c5c4)CC3)cc2)c2ccc(O)cc12 (stereo not shown) [Compound E14, 3-(6-(2-(4-(4-(4-((5-Hydroxy-2-(4-hydroxyphenyl)-3-methyl-1H-indol-1-yl)-methyl)phenoxy)butyl)piperazin-1-yl)-2-oxoethoxy)-1-methyl-1H-indazol-3-yl)piperidine-2,6-dione] | 0.33 nM | B (a percentage degradation value of less than 50% and no less than 25%) | B (a percentage degradation value of less than 50% and no less than 25%) | D (a percentage degradation value of less than 10%)
5 | Cn1nc(C2CCC(=O)NC2=O)c2ccc(OCC(=O)N3CCN(CCCCOc4ccc([C@H]5c6ccc(O)cc6CC[C@H]5c5ccccc5)cc4)CC3)cc21 (stereo partly drawn) [Compound B24, 3-(6-(2-(4-(4-(4-((1S,2R)-6-Hydroxy-2-phenyl-1,2,3,4-tetrahydronaphthalen-1-yl)phenoxy)butyl)piperazin-1-yl)-2-oxoethoxy)-1-methyl-1H-indazol-3-yl)piperidine-2,6-dione] | 66 nM | C (a percentage degradation value of less than 25% and no less than 10%) | C (a percentage degradation value of less than 25% and no less than 10%) | C (a percentage degradation value of less than 25% and no less than 10%)
6 | O=C1CCC(c2ccc(OCC(=O)N3CCN(CCCCOc4ccc([C@H]5c6ccc(O)cc6CC[C@H]5c5ccccc5)cc4)CC3)cc2)C(=O)N1 (stereo partly drawn) [Compound B44, 3-(4-(2-(4-(4-(4-((1S,2R)-6-Hydroxy-2-phenyl-1,2,3,4-tetrahydronaphthalen-1-yl)phenoxy)butyl)piperazin-1-yl)-2-oxoethoxy)phenyl)piperidine-2,6-dione] | 107 nM | B (a percentage degradation value of less than 50% and no less than 25%) | C (a percentage degradation value of less than 25% and no less than 10%) | C (a percentage degradation value of less than 25% and no less than 10%)
7 | Cc1c(-c2ccc(O)cc2)n(Cc2ccc(OCCCCN3CCN(C(=O)COc4cccc5c(N6CCC(=O)NC6=O)nn(C)c45)CC3)cc2)c2ccc(O)cc12 [Compound D23, 1-(7-(2-(4-(4-(4-((5-hydroxy-2-(4-hydroxyphenyl)-3-methyl-1H-indol-1-yl)-methyl)phenoxy)butyl)piperazin-1-yl)-2-oxoethoxy)-1-methyl-1H-indazol-3-yl)dihydro-pyrimidine-2,4(1H,3H)-dione] | 1.7 nM | C (a percentage degradation value of less than 25% and no less than 10%) | C (a percentage degradation value of less than 25% and no less than 10%) | D (a percentage degradation value of less than 10%)
8 | Cn1nc([C@@H]2CCC(=O)NC2=O)c2ccc(OCC(=O)N3CCN(CCCCOc4ccc([C@@H]5c6ccc(O)cc6CC[C@@H]5c5ccccc5)cc4)CC3)cc21 [Compound B23, (S)-3-(6-(2-(4-(4-(4-((1R,2S)-6-Hydroxy-2-phenyl-1,2,3,4-tetrahydronaphthalen-1-yl)phenoxy)butyl)piperazin-1-yl)-2-oxoethoxy)-1-methyl-1H-indazol-3-yl)piperidine-2,6-dione] | 0.22 nM | B (a percentage degradation value of less than 50% and no less than 25%) | B (a percentage degradation value of less than 50% and no less than 25%) | D (a percentage degradation value of less than 10%)
9 | O=C1CCC(N2Cc3sc(C4CCN(CCCCOc5ccc([C@@H]6c7ccc(O)cc7CC[C@@H]6c6ccccc6)cc5)CC4)cc3C2=O)C(=O)N1 (stereo partly drawn) [Compound A20, 3-(2-(1-(4-(4-((1R,2S)-6-Hydroxy-2-phenyl-1,2,3,4-tetrahydronaphthalen-1-yl)-phenoxy)butyl)piperidin-4-yl)-4-oxo-4,6-dihydro-5H-thieno[2,3-c]pyrrol-5-yl)piperidine-2,6-dione] | 0.05 nM | D (a percentage degradation value of less than 10%) | D (a percentage degradation value of less than 10%) | D (a percentage degradation value of less than 10%)
10 | O=C1CCC(N2Cc3c(csc3COc3ccc(CNCCCCCOc4ccc([C@@H]5c6ccc(O)cc6CC[C@@H]5c5ccccc5)cc4)cc3)C2=O)C(=O)N1 (stereo partly drawn) [Compound A9, 3-(1-((4-(((5-(4-((1R,2S)-6-hydroxy-2-phenyl-1,2,3,4-tetrahydronaphthalen-1-yl)phenoxy)pentyl)amino)methyl)phenoxy)methyl)-4-oxo-4H-thieno[3,4-c]pyrrol-5(6H)-yl)piperidine-2,6-dione] | 1.4 nM | B (a percentage degradation value of less than 50% and no less than 25%) | B (a percentage degradation value of less than 50% and no less than 25%) | B (a percentage degradation value of less than 50% and no less than 25%)

— patent US20240368121A1, “ESTROGEN RECEPTOR DEGRADERS, PHARMACEUTICAL COMPOSITIONS THEREOF, AND THEIR THERAPEUTIC APPLICATIONS” (BioTheryX, Inc., priority 2021, published 2024)
